Source: patent publication US20140099354A1, “BIOPASSIVATING MEMBRANE STABILIZATION BY MEANS OF NITROCARBOXYLIC ACID-CONTAINING PHOSPHOLIPIDS IN PREPARATIONS AND COATINGS” (priority 2011, published 2014)

What was measured:
[1] = system: ovarian tissue strips; test: Cryopreservation of ovarian tissue strips: intact follicles; details: liquid nitrogen 14 days, cultured 14 days
[2] = system: cortical neurons; test: Hypoxia and reperfusion of cortical neurons (viability, LDH); details: for results of the hypoxia experiments compared with reference nitrated phospholipids: neurons and cardiac myocytes, 10 to 50 μmol/l
[3] = system: sciatic nerve; test: Viability of cryopreserved nerve grafts (Annexin-V staining, FACS); assay type: cell-based, rats; details: 100 mmolar solution 1 hour; −30° C. 72 hours
Description: The sciatic nerve was prepared and sectured in anesthetized rats. The nerve pieces were freed from connective tissue and divided into 3 parts. Specimens were placed in culture DMEM medium containing low a concentration of glucose (1 g/L) with L-glutamine (PAA, Pasching Austria) for 24 hours. […] Nerve specimens from the same animals that received no pretreatment served as controls. After incubation, the specimens were cultured for 24 hours. In a further control group, specimens were cryopreserved without any pretreatment. The specimens were covered with a sterile gauze pad moistened with culture medium. Thereafter the temperature was gradually cooled to −30° C. After 72 hours, the nerve pieces were gradually rewarmed to 37° C. After this, renewed culturing was done for 48 hours. The nerve pieces were dissected enzymatically then (collagenase A and D, Roche, Mannheim, Germany) followed by a mechanical separation through multiple uptake and release in a glass pipette. The isolated cells were washed and marked with a living/death staining (Annexin-V-Fluos staining Kit, Roche Diagnostics, Mannheim, Germany) and quantified using FACS analysis. The number of living cells identified was set in relation to the total cells count.

[4] = system: Cardiac muscle cells derived from neonatal rat heart; test: Hypoxia of cardiac muscle cells (viability, mitochondrial NAD+); assay type: cell-based; details: for mitochondrial NAD+ content: hypoxia, baseline 5
Description: Cardiac muscle cells derived from neonatal rat heart (Nitobe J, et al, Reactive oxygene species regulate FLICE inhibitory protein and susceptibility to FAS-mediated apoptosis in cardiac myocytes. Cardiovasc RES 2003, 119-28). The heart muscle cells were cultured in Dulbecco/Eagle medium (DMEM) with 10% FCS added under standard conditions for two days. Incubation with the natural and nitrated phospholipids, as well as the hypoxia experiments were carried out as described above. Incubated cells were grown in culture medium under standard conditions for 24 hours. This is followed by a vitality staining as described above. […] The frozen cells were thawed up to -4° C. and homogenized for subsequent NAD^+ analyses. By means of differential centrifuge, pellets containing mitochondria were separated (Di Lisa, et al, 1993; Am. J. Physiol. 264, […]-[…]). The NAD^+ content was determined by fluoroscopy, and normalized to the protein content (Veloso, D., and […]., 1974;) Anal. Biochem., 449-450).

| Compound | rate of intact follicles relative to the control group [1] | proportion of living cells relative to non-frozen control [3] | further results |
| --- | --- | --- | --- |
| 1,2-di-(nitroarachidonoyl)-sn-glycero-3-phosphatidylcholines [Example N4] | 92% |  |  |
| 1,2-di-(dinitrolinoleoyl)-sn-glycero-3-phosphatidylcholines [Example N12] | 88% |  |  |
| 1-Palmitoyl-2-(10-hydroxy-9-nitro-α-linolenoyl)-sn-3-glycerophosphocholine and 1-palmitoyl-2-(9-hydroxy-10-nitro-α-linolenoyl)-sn-3-glycerophosphocholine [Example O6] |  | 78% | results of the hypoxia experiments compared with reference nitrated phospholipids [2]: slightly worse results |
| 1-Palmitoyl-2-(E-9-nitrooleoyl)-sn-3-glycero-phosphatidylinositol [PNOPI] |  | 82% |  |
| 1,2-di-(9-nitrogadleoyl)-sn-3-glycerophosphocholine, 1,2-di-(10-nitrolinoleoyl)-sn-3-glycerophosphocholine, 1-(9-nitrolinoleoyl)-2-(10-nitrogadoleoyl)-sn-3-glycerophosphocholine and 1-(10-nitrogadoleoyl)-2-(9-nitrogadoleoyl)-sn-3-glycerophosphocholine [Example N9] | 90% | 79% |  |
| 1,2-di-(dinitroeicosapentaenoyl)-sn-glycero-3-phosphatidylcholines [Example N13] | 91% |  |  |
| CCCCCCCCCCCCCCCC(=O)OC[C@H](COP(=O)([O-])OCC[N+](C)(C)C)OC(=O)CCCCCCCC(C(O)CCCCCCCC)[N+](=O)[O-] (stereo partly drawn) [Example O2, 1-palmitoyl-2-(9-nitro-10-hydroxy-stearoyl)-sn-3-glycerophosphocholine] | 87% |  |  |
| 1-Palmitoyl-2-(9-hydroxy-10-nitrostearoyl)-sn-3-glycerophosphocholine and 1-palmitoyl-2-(10-hydroxy-9-nitrostearoyl)-sn-3-glycerophosphocholine [Example O4] | 93% |  |  |
| CC/C=C(\C/C=C\C/C=C\CCCCCCCC(=O)OC[C@H](COP(=O)([O-])OCC[N+](C)(C)C)OC(=O)CCCCCCC/C=C\C/C=C\C/C(=C\CC)[N+](=O)[O-])[N+](=O)[O-] [Example N20, 1,2-di-(E-15-nitro-α-linolenoyl)-sn-3-glycerophosphocholine] |  | 82% |  |
| 1,2-di-(nitro-γ-linolenoyl)-sn-glycero-3-phosphatidylcholines [Example N5] | 89% |  |  |
| 1,2-di-(hydroxyl, nitro-8,11,14,17-eicosatetraenoyl)-sn-3-glycerophosphocholine [Example O5] |  |  | results of the hypoxia experiments compared with reference nitrated phospholipids [2]: slightly worse results |
| 1,2-Di-(9-hydroxy-10-nitrostearoyl)-sn-3-glycerophosphocholine, 1-(9-hydroxy-10-nitrostearoyl)-2-(10-hydroxy-9-nitrostearoyl)-sn-3-glycerophosphocholine, 1-(10-hydroxy-9-nitrostearoyl)-2-(9-hydroxy-10-nitrostearoyl)-sn-3-glycerophosphocholine and 1,2-di-(10-hydroxy-9-nitrostearoyl)-sn-3-glycerophosphocholine [Example O3] | 91% |  |  |
| 1,2-di-(nitroarachidonoyl)-sn-glycero-3-phosphatidylcholines [Example N3] | 94% |  |  |
| 1,2-di-(5-nitroeicosapentaenoyl)-sn-3-glycerophosphocholine, 1,2-di-(6-nitroeicosapentaenoyl)-sn-3-glycerophosphocholine, 1-(5-nitroeicosapentaenoyl)-2-(6-nitroeicosapentaenoyl)-sn-3-glycerophosphocholine and 1-(6-nitroeicosapentaenoyl)-2-(5-nitroeicosapentaenoyl)-sn-3-glycerophosPhocholine [Example N10] | 98% | 82% |  |
| CCCCCC/C(=C\CCCCCCCC(=O)OC[C@H](COP(=O)([O-])OCC[N+](C)(C)C)OC(=O)CCCCCCC/C=C(\CCCCCC)[N+](=O)[O-])[N+](=O)[O-] [Example N19, 1,2-di-(E-10-nitropalmitoleoyl)-sn-3-glycerophosphocholine] |  | 84% |  |
| 1-eicosapentaenoyl-2-(5-nitro-EPA)-sn-3-glycerophosphocholine and 1-eicosapentaenoyl-2-(6-nitro-EPA)-sn-3-glycerophosphocholine [Example P4] | 93% | 74% |  |
| CCCCCCCC/C(=C\CCCCCCCC(=O)O[C@H](COC(=O)CCCCC1CCSS1)COP(=O)([O-])OCC[N+](C)(C)C)[N+](=O)[O-] (stereo partly drawn) [Example P9, 1-liponoyl-2-(E-10-nitrooleoyl)-sn-3-glycerophosphocholine] | 90% |  |  |
| CCCCC/C=C\C/C=C\CCCCCCCC(=O)O[C@H](COC(=O)CCCCCCCCCCCCCCC)COP(=O)([O-])OCC[N+](C)(C)C [PLPC, 1-Palmitoyl-2-linoleoyl-sn-glycero-3-PC, reference compound] |  |  | increase in LDH versus normoxemia culture ([2]; 10-minutes ischemia): 380 fold; viability of cortical cells measured after 24 hours ([2]; 10-minutes ischemia): 30%; increase in LDH versus normoxemia culture ([2]; 30-minutes ischemia): 630 fold; viability of cortical cells measured after 24 hours ([2]; 30-minutes ischemia): 0%; loss of viability of heart muscle cells after hypoxia ([4]; (10 minutes)): 16%; loss of viability of heart muscle cells after hypoxia ([4]; (30 minutes)): 42%; mitochondrial NAD+ content ([4]; first printed value): 2.4 nmol/mg protein; mitochondrial NAD+ content ([4]; second printed value): 0.7 nmol/mg protein |
| CC/C=C\C/C=C\C/C=C\C/C=C\C/C=C\C/C=C\CCC(=O)OC[C@H](COP(=O)([O-])OCC[N+](C)(C)C)OC(=O)CCCCCCC/C=C(\CCCCCC)[N+](=O)[O-] [Example P11, 1-DHA-2-(E-10-nitropalmitoleoyl)-sn-3-glycerophosphocholine] | 97% |  |  |
| CCCCCCCC/C=C\CCCCCCCC(=O)O[C@H](COC(=O)CCCCCCCCCCCCCCC)COP(=O)(O)OC1[C@H](O)[C@H](O)C(O)[C@H](O)[C@H]1O (stereo partly drawn) [POPI, 1-Palmitoyl-2-oleoyl-sn-3-glycero-phosphatidylinositol, reference compound] |  | 20% |  |
| 1,2-di-(dinitro-α-linolenoyl)-sn-glycero-3-phosphatidylcholines [Example N14] |  | 81% |  |
| 1-oleoyl-2-(9-nitropalmitoleoyl)-sn-3-glycerophosphocholine and 1-oleoyl-2-(10-nitropalmitoleoyl)-sn-3-glycerophosphocholine [Example P1] |  | 90% |  |
| 1-erucinyl-2-(9-nitrogadoleoyl)-sn-3-glycerophosphocholine and 1-erucinyl-2-(10-nitrogadoleoyl)-sn-3-glycerophosphocholine [Example P3] | 97% | 90% |  |
| 1,2-di-(9-nitro-α-linolenoyl)-sn-3-glycerophosphocholine, 1,2-di-(10-nitro-α-linolenoyl)-sn-3-glycerophosphocholine, 1-(9-nitro-α-linolenoyl)-2-(10-nitro-α-linolenoyl)-sn-3-glycerophosphocholine and 1-(10-nitro-α-linolenoyl)-2-(9-nitro-α-linolenoyl)-sn-3-glycerophosphocholine [Example N11] | 95% |  |  |
